Source: patent US20170022258A1, “PEPTIDES FOR USE IN THE TREATMENT OF IL-1 RELATED DISEASES AND CONDITIONS” (C4M PHARMACEUTICALS PTY LTD., priority 2011, published 2017)
Like-named read-outs stand apart in the source and are kept apart here. Non-standard residues stand in square brackets, D forms with d. Residues, ends and D or L forms follow the SMILES beside them.

How the values were obtained:
[1] = test system: IL-1α-induced IL-8 production by HT-29 cells; test: IL-1α induced IL-8 production by HT-29 colonic epithelial cells; format: cell-based, human; conditions: 10 ng/ml IL-1α
Method: (§1) Human colon epithelial cell lines HT-29 and Caco2 obtained from the European Collection of Animal Cell Cultures (ECACC) were used in cell cultures. Cells were routinely cultured at 37° C. in an atmosphere of 5% CO2 in 80 cm^2 tissue culture flasks in McCoy's and DMEM medium, respectively, supplemented with penicillin (10 u/ml), streptomycin (10 μg/ml), fungizone (0.5 μg/ml), and 10% (v/v) FCS (referred to as complete medium) until confluent.
(§2) Confluent monolayers were sub-cultured into 6-well plates for experimental protocols. Cells were grown in 6-well plates until confluent. Twenty-four hours prior to the experiment the confluent monolayers were washed and cultured in FCS-free McCoy's medium. Growth arrested cultures were then treated with fresh FCS-free medium and stimulated with vehicle controls or various doses of IL-1α added alone or in combination with other pro-inflammatory cytokines (TNF-α, IFN-γ) in the presence or absence of the peptide of sequence 4 or IL-1 ra, in a dose and time dependent manner.
Supernatants were collected, centrifuged to remove cellular debris and stored at −70° C. until assayed for extracellular inflammatory mediators. Total RNA for RT-PCR was extracted as described above. Cell counting and viability was routinely checked at the beginning and the end of the experiment by phase microscopy and by trypan blue exclusion using representative wells. Mycoplasma tests were performed during the experimental protocol. Production of soluble mediators was assessed by commercially available ELISA in supernatants, RT-PCR in total RNA extractants and nitric oxide, as described in Kolios, G, et al. (1995). Br J Pharmacol, 116, 2866-2872, the contents of which are incorporated herein by reference.
HT 29 and Caco2 colonic epithelial cell lines were stimulated with 10 ng/ml of IL-la in the presence of 100 or 500 ng/ml of the peptide of sequence 4.

[2] = Human plasma stability trials; format: in vitro ADME; conditions: 37° C., 12 hours, read-out: ½ Life human plasma
Method: 1 mg of each peptide was added to the plasma and the solution was gently agitated for 2 minutes at room temperature before standing at 37° C. for a period of 12 hours.

[3] = test system: human subjects; test: Testing of peptide 4 in human subjects for treatment of different diseases and conditions; format: in vivo; conditions: 1 mg; for Duration: Single
Method: The peptide having the sequence 4 was tested to determine its effect on a range of different diseases in humans, horses and cows.
(§3) The peptides were prepared as compositions containing 1 mg of peptide dissolved in 5 ml of a solution comprising water, bicarbonate and either benzyl alcohol or methanol.

[4] = Solubility of peptide under different solvent conditions; format: physicochemical; conditions: 30 min room temperature
Method: 100 mg of each peptide was added to 100 ml total of water plus the solvents, and the solution was gently agitated for 30 min at room temperature.

[5] = test system: cows; test: Testing of peptide 4 in cows for treatment of mastitis; format: in vivo, cow; conditions: 1 mg, IV
Method: as §3

[6] = test system: IL-1α-induced IL-8 production by Caco2 cells; test: IL-1α induced IL-8 production by Caco2 colonic adenocarcinoma cells; format: cell-based, human; conditions: peptide 100 ng/ml, FIG. 2
Method: as §1, §2
Supernatants were collected, centrifuged to remove cellular debris and stored at −70° C. until assayed for extracellular inflammatory mediators. […] Production of soluble mediators was assessed by commercially available ELISA in supernatants, RT-PCR in total RNA extractants and nitric oxide, as described in Kolios, G, et al. (1995). […]

[7] = test system: cancer patients with cachexia; test: Treatment of cachexia in cancer patients (case reports); format: in vivo, human
Method: Patients are typically diagnosed as having cachexia where weight loss of at least 5% in 12 months or less (or BMI<20 kg/m^2), is accompanied by at least three of the following conditions: • Decreased muscle strength • Fatigue • Low fat-free mass index; and • Abnormal blood biochemistry: increased inflammatory markers (CRP, IL-6), anaemia (Hb<12 g/dL) and low serum albumin (<3.2 g/dL)
The peptide was administered by subcutaneous injection every second day for two weeks, in a composition containing the peptide dissolved in 5 ml of a solution comprising water, bicarbonate and either benzyl alcohol or methanol.
The peptide was administered by subcutaneous injection every second day for one month, in a composition containing the peptide dissolved in 5 ml of a solution comprising water, bicarbonate and either benzyl alcohol or methanol
The peptide was administered by subcutaneous injection every second day, in a composition containing the peptide dissolved in 5 ml of a solution comprising water, bicarbonate and either benzyl alcohol or methanol.
The peptide was administered by subcutaneous injection every second day for two months, in a composition containing the peptide dissolved in 5 ml of a solution comprising water, bicarbonate and either benzyl alcohol or methanol.
The peptide was administered by subcutaneous injection every second day for one week, in a composition containing the peptide dissolved in 5 ml of a solution comprising water, bicarbonate and either benzyl alcohol or methanol.
The peptide was administered by subcutaneous injection every second day for one month, in a composition containing the peptide dissolved in 5 ml of a solution comprising water, bicarbonate and either benzyl alcohol or methanol.
The peptide was administered by subcutaneous injection every second day for one month in a composition containing the peptide dissolved in 5 ml of a solution comprising water, bicarbonate and either benzyl alcohol or methanol.

[8] = Example 16: breast cancer, 1 mg subcutaneous every second day for one month

Q: Which results are given for `CC(=O)N[C@H](CC(C)C)C(=O)N1CCC[C@@H]1C(=O)N[C@H](CC(C)C)C(=O)N[C@H](C)C(=O)N[C@H](Cc1ccc(O)cc1)C(=O)N1CCC[C@@H]1C(=O)N[C@H](CCC(N)=O)C(=O)N[C@H](Cc1c[nH]c2ccccc12)C(=O)N[C@H](Cc1ccc(O)cc1)C(=O)NCC(=O)N1CCC[C@@H]1C(=O)N[C@@H](C(=O)N[C@H](Cc1c[nH]c2ccccc12)C(=O)N[C@H](CCC(=O)O)C(=O)N[C@H](Cc1ccccc1)C(=O)O)[C@H](C)O` [SEQ ID NO. 4, Ac-LPLAYPQWYGPTWEF] (Ac-[dL][dP][dL][dA][dY][dP][dQ][dW][dY]G[dP][dT][dW][dE][dF]-OH; C-terminus assumed)?
A: IL-1α-induced IL-8 production ([1]; peptide 500 ng/ml, IL-1α alone 67.455±0.125, n=6, p<0.01): 40.705±2.56 ng/ml per 106 cells; Effect on IL-1α-induced IL-8 production ([1]; peptide 100 or 500 ng/ml, FIG. 1): reduced IL-1α-induced IL-8 production in a concentration dependent manner; half-life [2]: 18.1 h; Effect ([3]; Cancer Pain from Adrenal Cancer, IM, Repeated): Moderate; Effect ([3]; Cancer Pain from Bone Metasta, IM, Repeated): Pronounced; Effect ([3]; Cancer Pain from Lung Cancer, SC, Repeated): Pronounced; Effect ([3]; Dermatitis, SC): Pronounced; Duration ([3]; Dermatitis, SC): Single 96 hrs; Effect ([3]; Emphysema, SC): Moderate; Duration ([3]; Emphysema, SC): Single 48 hrs; Effect ([3]; Lymphodema, IM): Pronounced; Duration ([3]; Lymphodema, IM): Single 96 hrs; Effect ([3]; Osteoarthritis, Joint): Mild; Duration ([3]; Osteoarthritis, Joint): Single 48 hrs; Duration ([3]; T1 Diabetes, IM): Single 96 hrs; Effect ([3]; Tonsilitis, oral): Pronounced; Duration ([3]; Tonsilitis, oral): Single 48 hrs; solubility at 30 min ([4]; benzyl alcohol (0.1-1%) in water, benzyl alcohol (0.1-1%), 100 mg peptide in 100 ml, read-out: Solubility: Benzyl Alcohol): > 1000 µg/mL; solubility at 30 min ([4]; hydrochloric acid (0.1-1%) in water, hydrochloric acid (0.1-1%), 100 mg peptide in 100 ml water plus solvent, read-out: Solubility: Acid): < 1000 µg/mL; solubility at 30 min ([4]; sodium bicarbonate (0.1-1%) in water, sodium bicarbonate (0.1-1%), 100 mg peptide in 100 ml, read-out: Solubility: Base): < 1000 µg/mL; Duration [5]: 72 h; Effect [5]: Pronounced; Effect on IL-1α-induced IL-8 secretion [6]: significant decrease; Side effects due to the administration of the peptide ([7]; Example 9: breast cancer, 1 mg subcutaneous every second day for two weeks): No side effects were noted; Symptoms of cachexia ([7]; Example 9: breast cancer, 1 mg subcutaneous every second day for two weeks, after 24 hours): cachexia symptoms were alleviated; Symptoms of cachexia ([7]; Example 10: adrenal adenomas, 1 mg subcutaneous every second day for one month): symptoms of cachexia were alleviated; Symptoms of cachexia ([7]; Example 11: glioblastoma, 1 mg subcutaneous every second day): symptoms of cachexia were alleviated; Symptoms of cachexia ([7]; Example 12: brain adenoma, 1 mg subcutaneous every second day for two months, two days after commencement): symptoms of cachexia were alleviated; Symptoms of cachexia ([7]; Example 13: brain glioma, 1 mg subcutaneous every second day for one week): symptoms of cachexia were alleviated; Symptoms of cachexia ([7]; Example 14: ovarian cancer, 1 mg subcutaneous every second day for one month): symptoms of cachexia were also alleviated; Symptoms of cachexia ([7]; Example 15: bone cancer, 1 mg subcutaneous every second day for one month): symptoms of cachexia were alleviated; Symptoms of cachexia [7, 8]: symptoms of cachexia were also alleviated; Weight put on [7, 8]: 5 kg; Symptoms of cachexia ([7]; Example 17: breast cancer, 1 mg subcutaneous every second day for two weeks): symptoms of cachexia were alleviated; Symptoms of cachexia ([7]; Example 18: bladder cancer, 1 mg subcutaneous every second day for one month, after 24 from commencement): symptoms of cachexia were alleviated; Symptoms of cachexia ([7]; Example 19: colon cancer, 1 mg subcutaneous every second day for one month): symptoms of cachexia were largely alleviated; Symptoms of cachexia ([7]; Example 20: colon cancer, 1 mg subcutaneous every second day for one month, one month after commencement): symptoms of cachexia had been treated; Symptoms of cachexia ([7]; Example 21: glioblastoma, 1 mg subcutaneous every second day for one month, two days after commencement): cachexia started to diminish; Symptoms of cachexia ([7]; Example 22: glioblastoma, 1 mg subcutaneous every second day, after 24 hours): symptoms of cachexia had been alleviated; Symptoms of cachexia ([7]; Example 23: Hodgkin's lymphoma, 1 mg subcutaneous every second day for one month, after three weeks): symptoms of cachexia were alleviated; Weight gained ([7]; Example 24: colon cancer, 1 mg subcutaneous every second day): ~5 kg; Symptoms of cachexia ([7]; Example 24: colon cancer, 1 mg subcutaneous every second day, after two weeks): symptoms of cachexia were alleviated; Symptoms of cachexia ([7]; Example 25: non-Hodgkin's lymphoma, 1 mg subcutaneous every second day, after 4 days): symptoms of cachexia were alleviated; Symptoms of cachexia ([7]; Example 26: pancreatic cancer, 1 mg subcutaneous every second day, after 7 days): symptoms of cachexia were alleviated; Symptoms of cachexia ([7]; Example 27: liposarcoma, 1 mg subcutaneous every second day, after 3 days): symptoms of cachexia were alleviated; Symptoms of cachexia ([7]; Example 28: liver cancer, 1 mg subcutaneous every second day, after one week): symptoms of cachexia were largely alleviated
